Consider four compounds from patent US20060252706A1, “Composition for slimming” (priority 2003, published 2006).

Structures are written as SMILES.

Series [1] concerns skin of a New Zealand white rabbit. Nature of the series: Skin irritation (Draize Primary Irritation Index). As to the method:
Skin irritations caused by theanine, caffeine, genistein, L-carnitine and catechin were measured observing edema and erythema on the skin of a New Zealand white rabbit.
Vehicle, 10% of theanine, caffeine, genistein, L-carnitine, catechin or mixture thereof were applied on the skin of a New Zealand white rabbit, twice a day for 4 days, total 8 times. After application, total skin irritation index was calculated by summing up the scores of erythema and edema. The skin irritation index was calculated according to Draize's skin Primary Irritation Index (P.I.I.) (Draize, J. H., Appraisal of the safety of chemical in foods, drugs and cosmetics).

The subject of series [2] is 3T3-L1 fat cells. As to the kind of experiment: Decomposition of fat: glycerol isolated into culture medium from 3T3-L1 fat cells. The note with it: FIG. 1. The class given is cell-based, rat. As to the method: (§1) 3T3-L1 cell, fibroblast cell line of […], was inoculated in 6 well culture plate with 1×10^5cells/well and cultured in DMEM (Dulbecos modified eagles medium, GIBCO BRL, Life Technologes) containing 10% of fetal bovine serum (FBS). After 2 days of culture, culture medium was changed with a new DMEM (containing 10% FBS), and cultured further 2 days. Then the culture cell was deposited in a new DMEM (containing 10% FBS) containing 1 μg/ml of insulin, 0.5 mM of IBMX and 0.25 μM of dexamethasone to induce differentiation, after 2 days, the culture medium was changed with a new DMEM containing insulin, and cultured for 5 days. After 5 days of culture, the culture medium was changed with a normal DMEM (containing 10% FBS), and observed until cells changed to fat cells (adipocytes).
The degree of the decomposition of fat was observed by measuring the concentration of glycerol isolated into the culture medium from fat cell. Measurement of the quantity of the glycerol was performed with chromphoric reaction method using GPO-trinder kit purchased from Sigma (St. Louis, Mo., U.S.A.), and absorption was measured in 540 nm using ELISA reader, then the result of each component was calculated based on the data of the control settled to be 100%. […]

Series [3] deals with 3T3-L1 fat cells. As to the kind of experiment: Cell toxicity of theanine at high concentration. The format is cell-based, mouse.
For series [4], the system named is β3-adrenergic receptor. Nature of the series: Expression of β3-adrenergic receptor by RT-PCR in 3T3-L1 fat cells. The format is cell-based, rat. The note with it: 0.005%, 24 hours, FIG. 2. As to the method:
as §1
In order to clarify the mechanism of acceleration of decomposition of neutral fat by the theanine, 3T3-L1 fat cells differentiated in the Reference Example 2 were used. The cells were treated with 0.005% of theanine purchased from KuridaKogyo (Japan) (more than 97%) and comparative materials (caffeine, control), and 24 hours later, RNAs were extracted from the cells and performed RT-PCR. The RT-PCR kit was purchased from TaKaRa, and primer of β3 -adrenergic receptor was purchased from Bioneer.

The subject of series [5] is 3T3-L1 cells. Nature of the series: Accumulation of neutral fat in fat cells (GPO-trinder, absorption at 540 nm). The class given is cell-based, rat. Conditions: 3T3-L1 cells treated during cell differentiation; compared with control; FIG. 4. As to the method: as §1
3T3-L1 fat cells differentiated in the Reference Example 2 were washed with PBS (phosphate buffered saline) three times, and harvested with extraction buffer (20 mM of Tris, 1 mM of EDTA and 1 mM of 2-mercaptoethanol). The harvested cells passed G26 needle 6 times on an ice base, centrifuged at 15000×g, 4° C. for 3 minutes and the supernatant was gathered to obtain cell extracts. […]
Neutral fats in the cell extracts obtained same as Experimental Example 3 underwent chromphoric reaction using GPO-trinder kit purchased from Sigma (St. Louis, Mo., U.S.A.), and absorption was measured at 540 nm using ELISA reader.

[6] abbreviates: New Zealand white, rabbit, in vivo, 4 days.
The mark [7] stands for this setting: New Zealand white rabbit, compared with control.

As to `C[N+](C)(C)C[C@H](O)CC(=O)[O-]` [L-carnitine], in series [1] (setting [6]), the “Primary Irritation Index (0˜4)” value is 0.7. Moreover, the skin irritation result in series [1] (rabbit, in vivo) was “do not cause skin irritation”.

As to `Cn1c(=O)c2c(ncn2C)n(C)c1=O` [caffeine, reference compound], in series [1] (setting [7]), the skin irritation entry was “do not cause skin irritation”. The “Primary Irritation Index (0˜4)” value in series [1] (setting [6]) is 0.7.

As to `O=c1c(-c2ccc(O)cc2)coc2cc(O)cc(O)c12` [genistein], the “Primary Irritation Index (0˜4)” value in series [1] (10% solution on rabbit skin, twice a day for 4 days, total 8 times) was 0.8. Also, in series [1] (setting [7]), the skin irritation entry is recorded as “do not cause skin irritation”.

Take `CCNC(=O)CC[C@H](N)C(=O)O` [theanine]: the “concentration of glycerol isolated into the culture medium from fat cell” value in series [2] (compared with the control (100%)) is reported as “increased”. Further, in series [2] (same concentration of caffeine), the “effect of decomposition of fat compared with caffeine (positive comparative control)” value is listed as “more excellent effect of decomposition of fat than that of caffeine”. Besides, the cell toxicity result in series [3] is “does not cause cell toxicity”. For the same compound, the “expression of β3-adrenergic receptor” value in series [4] is reported as “increases”. In addition, in series [5], the “amount of neutral fat” value was “decreased”. In series [1] (setting [6]), the “Primary Irritation Index (0˜4)” value was 0.8. Also, the skin irritation entry in series [1] (rabbit, in vivo) was “do not cause skin irritation”.
